Reference: US20250213534A1, “5-METHOXY-N,N-[…][…] THE TREATMENT OF COGNITIVE DYSFUNCTION” (GH RESEARCH IRELAND LIMITED, priority 2022, published 2025)

Legend:
[1] = system: Salmonella typhimurium (TA98, TA100, TA1535 and TA1537); test: Bacterial mutation test; type: cell-based; conditions: up to 5000 μg/plate; absence and presence of rat liver S-9
Experimental: (§1) These conditions included treatments at concentrations up to 5000 μg/plate (the maximum recommended concentration according to current regulatory guidelines), in the absence and in the presence of a rat liver metabolic activation system (S-9).

[2] = system: Escherichia coli (WP2 uvrA pKM101); test: Bacterial mutation test; type: cell-based; conditions: up to 5000 μg/plate; absence and presence of rat liver S-9
Experimental: as §1

[3] = system: patients with postpartum depression (PPD); test: Clinical trial of 5-MeO-DMT via inhalation (individualized dosing regimen) in postpartum depression; conditions: n=1
Experimental: The single-arm, open-label clinical trial will involve 15 adult female patients with clinically diagnosed postpartum depression (PPD).
The second dose (12 mg) will only be administered if: • a. A peak experience (total score of ⋅75) has not been achieved following the 6 mg dose, and • b. The 6 mg dose was safe and well-tolerated according to the investigator, • c. Any psychoactive effects (PsE) of the prior dose have subsided, and • d. Pre-dose vital parameters and forced expiratory volume in one second (FEV1) are in normal range, or if outside of the normal range, are not clinically significant according to the investigator. • 3. Similarly, a third dose (18 mg) will only be administered if: • a. A peak experience (total score of ⋅75) has not been achieved following the 12 mg dose, and • b. The 12 mg dose was safe and well-tolerated according to the investigator, and • c. Any PsE of the prior dose have subsided, and • d. Pre-dose vital parameters and forced expiratory volume in one second (FEV1) are in normal range, or if outside of the normal range, are not clinically significant according to the investigator.
The patients will be assessed for a peak psychedelic experience (based on a patient-scored visual analogue scale, the PE scale), sedation, and other endpoints after dosing. Follow-up visits are planned for Day 1, and Day 7 after the dosing day.
The following criteria must be met by all patients considered for clinical trial participation: • 1. Is female and in the age range between 18 and 45 years (inclusive) at screening. • 2. Has a body mass index (BMI) in the range of 18.5 and 35 kg/m^2 (inclusive) at screening. • 3. Meets the trial criteria for PPD as assessed by a trial psychiatrist or registered psychologist: • a. Diagnosis of Major Depressive Disorder without psychotic features, confirmed by the Mini-International Neuropsychiatric Interview (MINI), with peri-partum onset that began no earlier than gestation and no later than the first 4 weeks postpartum. • b. Has a Montgomery-Åsberg Depression Rating Scale (MADRS) total score of equal to or greater than 28 at screening and pre-dose on Day 0. • 6. […] Patients must have a negative pregnancy test at screening and on the pre-test day (Day −1). • 5. Is willing to delay start of other antidepressant or anxiety medication until after the end of the trial at Day 7 and agrees to keep any psychotherapy unchanged during the trial.

[4] = Pharmacokinetics after single dose via inhalation (LC-MS/MS); type: in vivo, human; conditions: after 3 hours; whole dose range 6, 12, 18 mg

Q: With COc1ccc2[nH]cc(CCN(C)C)c2c1 [5-MeO-DMT] as the compound, how does the Induction of mutation [1] read?
A: did not induce mutation

Q: And the Induction of mutation [2]?
A: did not induce mutation

Q: And the Inhalation-related adverse events [3]?
A: no inhalation-related adverse events

Q: What about the “MADRS remission (MADRS total score equal or less than 10)” value [3] of the same compound?
A: fulfilled

Q: And the “MADRS response (at least 50% improvement from baseline)” value [3]?
A: fulfilled

Q: What about the “Reported adverse events (cramping left abdominal pain and headache, Day 0)” value [3] of the same compound?
A: mild, short-lasting and resolved spontaneously

Q: And the “BIMF total score improvement” value ([3]; Day 7, from 92 to 105)?
A: 14%

Q: What about the “BIMF item 2 score: I feel rested” value ([3]; Day 7, Day 0 0) of the same compound?
A: 2

Q: And the “BIMF item 19 score: As time goes on, I am getting better at taking care of my baby” value ([3]; Day 7, Day 0 0)?
A: 1

Q: And the “BIMF item 18 score: Anxiety or worry often interferes with my mothering ability” value ([3]; Day 7, Day 0 2)?
A: 5

Q: What about the “BIMF item 16 score: I worry about how other people judge me (as a mother)” value ([3]; Day 7, Day 0 3) of the same compound?
A: 5

Q: What about the “BIMF item 13 score: I am taking good care of my physical needs (eating, showering, etc)” value ([3]; Day 7, Day 0 4) of the same compound?
A: 5

Q: And the “BIMF item 4 score: My baby and I understand each other” value ([3]; Day 7, Day 0 5)?
A: 5

Q: What about the “BIMF item 5 score: I am able to relax and enjoy time with my baby” value ([3]; Day 7, Day 0 5) of the same compound?
A: 6

Q: And the “BIMF item 9 score: I am getting enough encouragement from other people” value ([3]; Day 7, Day 0 5)?
A: 6

Q: And the “BIMF item 10 score: I trust my own feelings (instincts) when it comes to taking care of my baby” value ([3]; Day 7, Day 0 5)?
A: 6

Q: And the “BIMF item 11 score: I take a little time each week to do something for myself” value ([3]; Day 7, Day 0 5)?
A: 6

Q: What about the “BIMF item 15 score: My baby and I are getting into a routine” value ([3]; Day 7, Day 0 5) of the same compound?
A: 6

Q: And the “BIMF item 17 score: I am able to take care of my baby and my other responsibilities” value ([3]; Day 7, Day 0 5)?
A: 5

Q: What about the “BIMF item 1 score: I am a good mother” value ([3]; Day 7, Day 0 6) of the same compound?
A: 6

Q: What about the “BIMF item 3 score: I am comfortable with the way I've chosen to feed my baby (either bottle or breast, or both)” value ([3]; Day 7, Day 0 6) of the same compound?
A: 6

Q: What about the “BIMF item 6 score: There are people in my life that I can trust to care for my baby when I need a break” value ([3]; Day 7, Day 0 6) of the same compound?
A: 6

Q: And the “BIMF item 8 score: I am getting enough adult interaction” value ([3]; Day 7, Day 0 6)?
A: 6

Q: And the “BIMF item 12 score: I am taking good care of my baby's physical needs (feedings, changing diapers, doctor's appointments)” value ([3]; Day 7, Day 0 6)?
A: 6

Q: What about the “BIMF item 14 score: I make good decisions about my baby's health and well being” value ([3]; Day 7, Day 0 6) of the same compound?
A: 6

Q: And the “BIMF item 20 score: I am satisfied with the job I am doing as a new mother” value ([3]; Day 7, Day 0 6)?
A: 5

Q: What about the “BIMF item 1 Δ (Day 7)” value ([3]; Day 7 vs Day 0) of the same compound?
A: 0

Q: And the “BIMF item 2 Δ (Day 7)” value ([3]; Day 7 vs Day 0)?
A: 2

Q: And the “BIMF item 3 Δ (Day 7)” value ([3]; Day 7 vs Day 0)?
A: 0

Q: And the “BIMF item 4 Δ (Day 7)” value ([3]; Day 7 vs Day 0)?
A: 0

Q: What about the “BIMF item 5 Δ (Day 7)” value ([3]; Day 7 vs Day 0) of the same compound?
A: 1

Q: What about the “BIMF item 6 Δ (Day 7)” value ([3]; Day 7 vs Day 0) of the same compound?
A: 0

Q: And the “BIMF item 7 Δ (Day 7)” value ([3]; Day 7 vs Day 0)?
A: 0

Q: And the “BIMF item 8 Δ (Day 7)” value ([3]; Day 7 vs Day 0)?
A: 0

Q: And the “BIMF item 9 Δ (Day 7)” value ([3]; Day 7 vs Day 0)?
A: 1

Q: What about the “BIMF item 10 Δ (Day 7)” value ([3]; Day 7 vs Day 0) of the same compound?
A: 1

Q: And the “BIMF item 11 Δ (Day 7)” value ([3]; Day 7 vs Day 0)?
A: 1

Q: And the “BIMF item 12 Δ (Day 7)” value ([3]; Day 7 vs Day 0)?
A: 0

Q: And the “BIMF item 13 Δ (Day 7)” value ([3]; Day 7 vs Day 0)?
A: 1

Q: And the “BIMF item 14 Δ (Day 7)” value ([3]; Day 7 vs Day 0)?
A: 0

Q: And the “BIMF item 15 Δ (Day 7)” value ([3]; Day 7 vs Day 0)?
A: 1

Q: What about the “BIMF item 16 Δ (Day 7)” value ([3]; Day 7 vs Day 0) of the same compound?
A: 2

Q: And the “BIMF item 17 Δ (Day 7)” value ([3]; Day 7 vs Day 0)?
A: 0

Q: And the “BIMF item 18 Δ (Day 7)” value ([3]; Day 7 vs Day 0)?
A: 3

Q: And the “BIMF item 19 Δ (Day 7)” value ([3]; Day 7 vs Day 0)?
A: 1

Q: What about the “BIMF item 20 Δ (Day 7)” value ([3]; Day 7 vs Day 0) of the same compound?
A: −1

Q: And the “Time to clinical remission after administration” value ([3]; IDR 6 mg followed by 12 mg)?
A: ≤ 2 h

Q: And the “Detectability in the plasma” value [4]?
A: no longer detectable
